For data set [1], the system named is R77C-α-SGmCh. The data set can be described thus: SG localization cell-based assay: membrane rescue of R77C-α-SGmCh in immortalized LGMD-R3 patient fibroblasts. The arrangement: species or system human. To be noted: for effect on R77C-α-SGmCh mutant protein rescue in combination with givinostat: low doses: carfilzomib 10 nM, MG132 100 nM, increasing concentrations of givinostat; for EC50: read-out: EC50, presence of R77C-α-SGmCh at the membrane. The method, then: Cells were analyzed after 24 hours of treatment.
In order to easily evaluate the membrane localization of the R77C-α-SG mutant in the heterologous condition, a system was generated that allowed the simultaneous identification of the positive cells for the exogenous protein and the quantification of the amount of protein in the cell membrane. A fusion protein was created, consisting of the coding sequence for human R77C-α-SGfused with an mCherry (mCh) fluorescent reporter at the C-terminus. A flexible linker was inserted between the two coding sequences to avoid protein interference in protein maturation and folding. The construct, hereafter termed R77C-α-SGmCh, was placed under the transcriptional control of the cytomegalovirus (CMV) promoter and inserted into a lentivirus backbone. Immortalized fibroblasts from a LGMD-R3 patient were used as cellular model because of their absence of endogenous α-SG.

For data set [2], the target named is T1, chymotrypsin-like activity of the proteasome (Homo sapiens, UniProt P28074).
T1 construct: endogenous in cells; host or cells: immortalized patient fibroblasts overexpressing R77C-α-SGmCh
Briefly: Proteasomal activity assay (Proteasome-Glo chymotrypsin-like cell-based assay). To be noted: for chymotrypsin-like activity of the proteasome: increasing concentrations. On the procedure: Fibroblasts were seeded in 384 well plates and treated with tested combinations as indicated for 12 hours. Proteasome-Glo™ or chymotrypsin-like cell-based assay reagents were added according to manufacturer instructions (Promega). Luminescence was read using a CLARIOstar® microplate reader (BMG Labtech).

For data set [3], the system named is ubiquitinated proteins, P62, LC3BI/II, acetylated α-tubulin, α-SG. Briefly: Immunoblotting of fibroblasts overexpressing R77C-α-SGmCh. Particulars: 24 hours; for ubiquitinated proteins (Western blot): 10 μM in combination with 5 nM BTZ. The class given is cell-based, human. On the procedure: (B) Western Blot analysis of ubiquitinated proteins (top panel), P62 and LC3BI/II (middle panel) and acetylated α-tubulin (bottom panel) expression in fibroblasts overexpressing R77C-α-SGmCh and treated with DMSO 0.1%, BTZ (5 nM or 30 nM), or givinostat (10 μM) in presence or in absence of 5 nM BTZ for 24 hours.
(D) Western Blot analysis of ubiquitinated proteins (middle panel), α-SG (top panel) and acetylated α-tubulin (bottom panel) expression in fibroblasts overexpressing R77C-α-SGmCh and treated with DMSO 0.1%, BTZ (5 nM or 30 nM), or tubacin (10 μM) in presence or in absence of 5 nM BTZ for 24 hours.
Twenty-four hours after seeding, the immortalized fibroblasts expressing R77C-α-SGmCh were incubated with the tested compounds or the carrier. Cells were collected after 24 hours of treatment. Proteins were extracted by cell lysis buffer (NP40 Buffer, Thermo Scientific) and Proteases Inhibitors (Complete PIC, Roche). Proteins were separated using a 3-8% Criterion™ XT tris-acetate protein gel and then transferred to PVDF membrane with a Trans-Blot Turbo Transfert system (Biorad) using the 7 min/25V program. Detection of proteins was performed using standard Odyssey protocol by incubation with the following antibodies: • Ubiquitinated proteins: Merck, 04-263; • acetylated α-tubulin: Sigma, T6793; • P62: Abcam, ab56416; • LC3BI/II: Novus, NB600-1384.

The subject of data set [4] is fibroblasts overexpressing R77C-α-SGmCh. The data set can be described thus: Viability test: count of Hoechst stained cells per field. Particulars: increasing concentrations alone or in combination with 5 nM BTZ.
Procedure: For overexpression of mutated α-SG and γ-SG, immortalized fibroblasts were transduced with a lentiviral vector expressing human R77C-α-SGmCh, C283Y-γ-SGmCh or E263K-γ-SGmCh with a multiplicity of infection (MOI) of 20 in the presence of 4 μg/ml of polybrene (Sigma-Aldrich). Cells were seeded on plates coated with 50 μg/ml of collagen I and maintained in a humidified atmosphere of 5% CO2 at 37-C. […] Cells were analyzed after 24 hours of treatment.
After 24 hours of drug treatment, cells were fixed in 4% paraformaldehyde (10 min, room temperature). Immunocytochemistry was performed in a phosphate-buffered saline (PBS) solution supplemented with 1% bovine serum albumin (BSA; Sigma) for blocking (1 hour, room temperature) and with a mouse anti-α-SG (NCL-L-a-SARC, Novocastra, Leica) or anti-γ-SG (NCL-L-g-SARC, Novocastra, Leica) for primary hybridization step (overnight, 4° C.). Cells were stained with a fluorophore-conjugated secondary anti-mouse antibody (Invitrogen; 1 hour, room temperature) and nuclei were visualized with Hoechst 33342 (Invitrogen). SG localization was analyzed with a CellInsight CX7 HCS Platform (Cellomics Inc). […] Pictures were acquired with a 10× objective in high-resolution camera mode and were analyzed using the colocalization bioapplication. The number of cells was monitored by counting Hoechst stained cells per field allowing quantification of the cell viability.
Setting [5] is: 10 μM with addition of 5 nM BTZ.
Where [6] appears, read: combined treatment with 5 nM BTZ.

Where two headings read alike, the source gives them in different places. Peptide text beside a SMILES is read from it. * marks the point of attachment. Cbz = O=C(OCc1ccccc1)*

From patent US20230338369A1, “COMBINATION OF A PROTEASOME INHIBITOR AND A HDAC INHIBITOR AND ITS USE FOR THE TREATMENT OF GENETIC DISEASES LINKED TO A PROTEIN CONFORMATIONAL DISORDER” (Centre d'Etude des Cellules Souches (CECS), priority 2019, published 2023) come the findings set out here.

Take `CC(C)C[C@@H](C=O)NC(=O)[C@H](CC(C)C)NC(=O)[C@H](CC(C)C)NC(=O)OCc1ccccc1` [MG132] (Cbz-Leu-Leu-Leu-aldehyde): in data set [1], the “effect on R77C-α-SGmCh mutant protein rescue in combination with givinostat” value is reported as “synergistic effect”.

By EC50 is commonly meant the concentration that produces a half-maximal response. For the molecule `O=C(/C=C/c1cccc(S(=O)(=O)Nc2ccccc2)c1)NO` [belinostat], the “R77C-α-SGmCh membrane rescue (α-SG staining)” value in data set [1] (10 μM alone) is listed as “low effect”; in data set [1] (setting [5]), “diffuse α-SG staining suggesting a synergy with BTZ”. In addition, the figures for the EC50 in data set [1] (setting [6]) and in data set [1] (treatment alone) were 0.3 µM and 5.3 µM, respectively. Further, the “chymotrypsin-like activity of the proteasome” value in data set [2] was “no proteasomal inhibition”.

Consider `CC(C)C[C@H](NC(=O)[C@H](Cc1ccccc1)NC(=O)c1cnccn1)B(O)O` [bortezomib], for which, in data set [1] (5 nM BTZ), the R77C-α-SG degradation rescue result is recorded as “rescuing partially”. Besides, in data set [1] (30 nM, 24 hours, non-permeabilized condition), the “R77C-α-SG localization in the plasma membrane” value is “rescue of R77C-α-SG localization in the plasma membrane”. In addition, in data set [2] (5 nM BTZ), the “inhibition of the proteasome activity” value is on record as “limited inhibition”.

Turning to `CC(C)C[C@H](NC(=O)[C@H](CCc1ccccc1)NC(=O)CN1CCOCC1)C(=O)N[C@@H](Cc1ccccc1)C(=O)N[C@@H](CC(C)C)C(=O)[C@@]1(C)CO1` [carfilzomib], the “effect on R77C-α-SGmCh mutant protein rescue in combination with givinostat” value in data set [1] was “synergistic effect”.

With `CCN(CC)Cc1ccc2cc(COC(=O)Nc3ccc(C(=O)NO)cc3)ccc2c1` [givinostat, Givinostat], the “R77C-α-SGmCh membrane rescue (α-SG staining)” value is given as “low effect” in data set [1] (10 μM alone) and “diffuse α-SG staining suggesting a synergy with BTZ” in data set [1] (setting [5]). Moreover, the EC50 in data set [1] (setting [6]) is 0.8 µM; in data set [1] (treatment alone), 3 µM. For the same molecule, the “chymotrypsin-like activity of the proteasome” value in data set [2] is listed as “no proteasomal inhibition”. Also, the “acetylation of α-tubulin (Western blot)” value in data set [3] (10 μM alone or in combination with 5 nM BTZ) was “induces the acetylation of α-tubulin”. Moreover, the “LC3B-I to LC3B-II conversion and P62 (Western blot)” value in data set [3] (10 μM combined with 5 nM BTZ) is given as “increasing conversion of LC3B-I to LC3B-II with P62 accumulation”. The “ubiquitinated proteins (Western blot)” value in data set [3] is given as “synergistic accumulation of ubiquitinated proteins”.

For `O=C(CCCCCCC(=O)Nc1ccc([C@H]2O[C@@H](CSc3nc(-c4ccccc4)c(-c4ccccc4)o3)C[C@@H](c3ccc(CO)cc3)O2)cc1)NO` [tubacin, Tubacin], the “membrane R77C-α-SGmCh expression” value in data set [1] (in combination with 5 nM BTZ) was “synergistic effect”. In addition, the “membrane R77C-α-SGmCh expression” value in data set [1] (increasing concentrations, alone) was “induced a dose-response curve”. In addition, in data set [3] (10 μM combined with 5 nM BTZ), the “acetylation of α-tubulin (Western blot)” value is recorded as “acetylation of a-tubulin” and the “α-SG protein levels (Western blot)” value is given as “increased α-SG protein levels”. Moreover, in data set [3], the “ubiquitinated proteins (Western blot)” value is “synergistic accumulation of ubiquitinated proteins”. The cell toxicity result in data set [4] is given as “in the same range than givinostat”.
